Results reported in US10155732B2, “Ribonucleotide reductase inhibitors and methods of use” (City of Hope, priority 2012, dated 2018).
Values joined by “and” are separate entries in the source; they are usually repeats but may differ in a detail not shown here. Equal values may be shown once. Read-outs that look alike come from different tables or passages of the source. Blank lines part the entries; values can stand above or below the molecule they belong to.

Tests used:
[1] = molecular target: recombinant RRM1/RRM2 complex (Homo sapiens (Human), UniProt P31350); assay: in vitro holoenzyme-based RR assay, [3H]CDP reduction by HPLC; format: biochemical; conditions: for inhibition of native RRM1/RRM2 activity in vitro screen: screen of top 80 virtual screening candidates
Text: Compounds that docked into the ligand binding pocket were identified using the TRIPOS FlexX docking tool and ranked using an embedded consensus docking score. […] The assay utilized recombinant RRM1/RRM2 or RRM1/RRM2 complex and measured [^3H]CDP reduction activity (i.e., CDP to dCDP) by HPLC.

human leukemia REH cells = assay: MTT cytotoxicity assay; format: cell-based; conditions: 72 hours
Description: (§1) The in vitro cytotoxicity of COH4 and COH20 towards human leukemia REH and MOLT-4 cells, human prostate cancer LNCaP cells, human oropharyngeal cancer KB cells, and normal fibroblast NHDF cells was evaluated using an MTT assay. 5,000 cells were seeded on six-well plates for 72 hours with various concentrations of drug. COH20 was cytotoxic to the cancer cell lines at less than 10 μM, while causing less cytotoxicity to normal cells than 3-AP.

[2] = tested on: human oropharyngeal cancer KB cells; assay: MTT cytotoxicity assay; format: cell-based; conditions: 72 hours
Description: as §1

[3] = tested on: human prostate cancer LNCaP cells; assay: MTT cytotoxicity assay; format: cell-based; conditions: 72 hours
Description: as §1

[4] = tested on: human leukemia MOLT-4 cells; assay: MTT cytotoxicity assay; format: cell-based
Description: as §1
(§2) The in vitro cytotoxicity of COH29 towards a panel of human cancer cell lines was tested using the MTT assay described above.

[5] = tested on: normal fibroblast NHDF cells; assay: MTT cytotoxicity assay; format: cell-based, human; conditions: 72 hours
Description: as §1

intracellular RR = intracellular RR activity in lysates of treated KB cells; format: cell-based, human; conditions: KB cells treated with 10 μM
Description: To confirm that the ability of COH20 to inhibit RR activity was not specific to recombinant RR, an assay was performed testing the effect of COH20 on intracellular RR. KB cells treated with 10 μM COH20 were lysed, and protein was extracted in a high salt buffer and passed through a G25 SEPHADEX® column to remove small molecules such as dNTP. The eluate was mixed with [^3H]CDP in reaction buffer to monitor RR activity. Treatment with COH20 decreased intracellular RR activity by approximately 50% (FIG. 7).

KBHURs = assay: in vitro cytotoxicity assay, HU-resistant clone; format: cell-based, human; conditions: overexpresses RRM2
Description: as §1
In vitro cytotoxicity assays were repeated using KBHURs, an HU-resistant clone derived from KB cells that overexpresses RRM2. […] Similar experiments will be repeated using the gemcitabine resistant cell line KBGem, which also overexpresses RRM2.

KBMDR = assay: in vitro cytotoxicity assay, multidrug resistant clone; format: cell-based, human
[6] = single-dose pharmacokinetic evaluation in rats; format: in vivo, rat
Description: COH20 was injected into three male rats at 1 mg/kg for single-dose pharmacokinetic evaluation. […] More detailed pharmacokinetic studies will be performed with various dosages of COH20 to establish parameters such as clearance, bioavailability, and tissue/plasma partition coefficients.
Pharmacokinetic evaluation was performed on COH29 using the same techniques, with COH29 administered at a dosage of 25 mg/kg.

[7] = tested on: REH, MOLT-4, LNCaP and KB cancer cell lines; assay: MTT cytotoxicity assay, cancer cell lines together; format: cell-based, human
Description: as §1

Leukemia CCRF-CEM = assay: MTT cytotoxicity assay; format: cell-based; conditions: Homo sapiens
Description: as §1, §2

Leukemia SUP B15 = assay: MTT cytotoxicity assay; format: cell-based; conditions: Homo sapiens
Description: as §1, §2

Ovarian Cancer OV 90 = assay: MTT cytotoxicity assay; format: cell-based; conditions: Homo sapiens
Description: as §1, §2

[8] = tested on: NCI 60 human cancer cell lines; assay: MTT cytotoxicity assay, panel of human cancer cell lines; format: cell-based
Description: as §1, §2

[9] = RR activity, Table 1, read-out: IC50 ± S.D.
[10] = Homo sapiens, MOLT-4, 72 hours, Table 3, read-out: IC50 MOLT-4
[11] = rats, 25 mg/kg, individual analysis 1-3

recombinant RRM1/RRM2 complex, sequence (P31350 whole entry, one chain of several): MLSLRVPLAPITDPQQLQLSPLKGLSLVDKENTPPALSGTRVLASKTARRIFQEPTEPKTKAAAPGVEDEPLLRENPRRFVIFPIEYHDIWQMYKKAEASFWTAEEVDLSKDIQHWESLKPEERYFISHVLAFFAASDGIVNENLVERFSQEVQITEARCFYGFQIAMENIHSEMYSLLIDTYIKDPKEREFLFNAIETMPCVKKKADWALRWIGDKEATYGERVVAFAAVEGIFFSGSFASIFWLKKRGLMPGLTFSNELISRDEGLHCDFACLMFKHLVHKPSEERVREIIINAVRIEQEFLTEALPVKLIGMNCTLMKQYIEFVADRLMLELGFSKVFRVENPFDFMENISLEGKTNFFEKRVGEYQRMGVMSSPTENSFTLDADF

Compound: NC(=S)NN=Cc1ncccc1N [Compound 3-AP, 3-aminopyridine-2-carboxaldehyde thiosemicarbazone, reference compound]
- IC50 [1, 9]: 1.2 ± 0.13 µM
- IC50 (human leukemia REH cells; Homo sapiens, REH): 1.42 µM
- IC50 ([2]; Homo sapiens, KB): 1.98 µM
- IC50 ([3]; Homo sapiens, LNCaP): 1.75 µM
- IC50 [4, 10]: 1.21 µM
- IC50 ([5]; Homo sapiens, NHDF): 7.35 µM
- concentration exhibiting cytotoxicity towards KBMDR cells (KBMDR): 200 µM

Compound: NC(=O)NO [HU, hydroxyurea, reference compound]
- IC50 [1, 9]: 148 ± 7.34 µM
- IC50 (human leukemia REH cells): 32.8 µM
- IC50 [2]: 300 µM
- IC50 [3]: 280 µM
- IC50 ([4]; 72 hours, Table 3, read-out: IC50 MOLT-4): 165 µM
- IC50 [5]: > 1000 µM
- concentration exhibiting cytotoxicity towards KBMDR cells (KBMDR): > 1000 µM

Compound: O=C1C(Cl)=C(Nc2ccc(S(=O)(=O)Nc3ccccn3)cc2)C(=O)c2ccccc21 [NSC #45382]
- inhibition of native RRM1/RRM2 activity in vitro screen [1]: ≥ 80%

Compound: Cl.O=c1oc2ccccc2c(O)c1C=Nc1nc(-c2ccc(O)c(O)c2)cs1 [NSC #659390]
- inhibition of native RRM1/RRM2 activity in vitro screen [1]: ≥ 80%

Now from value to molecule, other results behind:

- IC50 [1, 9]: 15.3 ± 1.8 µM
Compound: O=C(Nc1nc(-c2ccc(O)c(O)c2)cs1)c1ccccc1 [COH4]
- IC50 (human leukemia REH cells; Homo sapiens, REH): 20.6 µM
- IC50 ([2]; Homo sapiens, KB): 30.6 µM
- IC50 ([3]; Homo sapiens, LNCaP): 23 µM
- IC50 [4, 10]: 11.8 µM
- IC50 ([5]; Homo sapiens, NHDF): 52.6 µM

- inhibition of the recombinant RRM1/RRM2 complex in vitro [1]: 90.2%
- IC50 [1, 9]: 9.3 ± 2.3 µM
- IC50 ([1]; Table 2, no added Fe, read-out: IC50 ± S.D. RRM1/RRM2): 9.31 ± 2.3 µM
- half-life ([6]; male, rat, plasma, other: injected, 1 mg/kg, three male rats, 1 mg/kg, plasma, read-out: terminal half-life (T1/2) (converted)): ~5.5 h
Compound: O=C(Nc1nc(-c2ccc(O)c(O)c2)cs1)c1ccc(O)c(O)c1 [COH20]
- decrease of intracellular RR activity (intracellular RR): approximately 50%
- IC50 (human leukemia REH cells; Homo sapiens, REH): 2.54 µM
- IC50 ([2]; Homo sapiens, KB): 9.25 µM
- IC50 ([3]; Homo sapiens, LNCaP): 8.49 µM
- IC50 [4, 10]: 5.26 µM
- IC50 ([5]; Homo sapiens, NHDF): 82.8 µM
- cytotoxicity to KBHURs (in words) (KBHURs): cytotoxic to KBHURs at significantly lower concentrations than the other RR inhibitors tested
- concentration exhibiting cytotoxicity towards KBMDR cells (KBMDR): 80 µM
- cytotoxicity to KBMDR (in words) (KBMDR; overexpresses the MDR pump): at lower concentrations than 3-AP or HU
- concentration cytotoxic / growth inhibiting to the cancer cell lines [7]: less than 10 μM

- AUC ([6]; rat, plasma, intravenous, 25 mg/kg, rats, 25 mg/kg, Avg. of triplicate, read-out: AUC): 3480 ng·h/mL
- Cmax ([6]; rat, plasma, intravenous, 25 mg/kg, rats, 25 mg/kg, Avg. of triplicate, read-out: Cmax): 27600 ng/mL
- half-life ([6]; rat, plasma, intravenous, 25 mg/kg, rats, 25 mg/kg, Avg. of triplicate, read-out: T1/2 (converted)): 2.67 h
- Vd ([6]; rat, plasma, intravenous, 25 mg/kg, rats, 25 mg/kg, Avg. of triplicate, read-out: Vss): 0.804 L/kg
- AUC ([6]; rat, plasma, intravenous, 25 mg/kg, rats, 25 mg/kg, individual analysis 1-3, read-out: AUC): 3670 ng·h/mL
- Cmax ([6]; rat, plasma, intravenous, 25 mg/kg, rats, 25 mg/kg, individual analysis 1-3, read-out: Cmax): 31300 ng/mL
- clearance ([6]; rat, plasma, intravenous, 25 mg/kg, rats, Avg. of triplicate): 122 mL/min/kg
- clearance ([6]; rat, plasma, intravenous, 25 mg/kg, rats, individual analysis 1-3): 114 mL/min/kg
- Tmax ([6]; rat, plasma, intravenous, rats, 25 mg/kg, individual analysis 1-3): 1.8 min
- AUC [6, 11]: 2861 ng·h/mL and 3918 ng·h/mL
- CL [6, 11]: 145.6 mL/min/kg and 106.4 mL/min/kg
- Cmax [6, 11]: 26000 ng/mL and 25600 ng/mL
- T1/2 [6, 11]: 0.4 h and 7.6 h and 0.03 h
- Vss [6, 11]: 1.185 L/kg and 0.576 L/kg and 0.653 L/kg
- AUC dose dependence ([6]; rats, i.v. bolus): dose-dependent manner
Compound: O=C(Nc1nc(-c2ccc(O)c(O)c2)c(-c2ccccc2)s1)c1ccc(O)c(O)c1 [COH29]
- IC50 (Leukemia CCRF-CEM): 2.8 µM
- IC50 (Leukemia SUP B15): 5 µM
- IC50 (Ovarian Cancer OV 90): 2.6 µM
- IC50 ([4]; Homo sapiens, MOLT-4, Table 4, read-out: IC50 Leukemia MOLT-4): 2.5 µM
- GI50 ([8]; except HT29, UACC-257, NCI/ADR-RES, CAKI-1): < 10 µM
- IC50 ([8]; except colon cancer HT29, melanoma UACC-257, ovarian cancer NCI/ADR-RES, renal cancer CAKI-1, read-out: IC50 in all cell types tested): < 10 µM
